Experimental data taken from patent publication US9862730B2, “Imidazothiadiazole derivatives as protease activated receptor 4 (PAR4) inhibitors for treating platelet aggregation” (BRISTOL-MYERS SQUIBB COMPANY, priority 2012, dated 2018).

Target: PAR4 (Homo sapiens (Human), UniProt Q96RI0)
Experiment: FLIPR assay in PAR4-expressing HEK293 cells (PAR4 antagonist activity, calcium mobilization)
Type: cell-based
Conditions: FLIPR assay as described in Example A
Summary of the method: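 HEK293 cells stably expressing human PAR4 (also endogenous PAR1) in HBSS/10 mM HEPES, 0.67% DMSO final. Compound added and read for agonist activity, then 30 min room temperature before PAR4 agonist peptide; intracellular calcium mobilization monitored by FDSS/FLIPR.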

Chain of PAR4 (Q96RI0 18-385): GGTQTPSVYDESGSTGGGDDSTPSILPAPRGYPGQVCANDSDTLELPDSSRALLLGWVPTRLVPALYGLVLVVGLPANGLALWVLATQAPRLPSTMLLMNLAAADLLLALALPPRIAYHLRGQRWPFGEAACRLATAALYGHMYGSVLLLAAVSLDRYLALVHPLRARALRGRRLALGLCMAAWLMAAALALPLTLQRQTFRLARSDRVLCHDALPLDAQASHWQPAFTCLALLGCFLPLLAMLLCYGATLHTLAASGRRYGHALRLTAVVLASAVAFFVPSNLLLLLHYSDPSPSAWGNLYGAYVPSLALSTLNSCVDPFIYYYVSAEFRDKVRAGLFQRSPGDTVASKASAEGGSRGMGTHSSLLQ

SMILES | IC50 [nM]
COc1cc(OCc2cccc(OCc3ccc(OCc4ccccc4)cc3)c2)c2cc(-c3cn4nc(OC)sc4n3)oc2c1 [Example 366] | 164
COc1cc(OCc2cccc(OCc3cc(Br)ccc3OC)c2)c2cc(-c3cn4nc(OC)sc4n3)oc2c1 [Example 367] | 4.09
COc1cc(OCc2cccc(OCc3c(Cl)cccc3Cl)c2)c2cc(-c3cn4nc(OC)sc4n3)oc2c1 [Example 368] | 4.69
COc1cc(OCc2cccc(OCc3cccc(OCc4cccc(Cl)c4)c3)c2)c2cc(-c3cn4nc(OC)sc4n3)oc2c1 [Example 375] | 260
COc1cc(OCc2cccc(OCc3c(C)cc(C)cc3C)c2)c2cc(-c3cn4nc(OC)sc4n3)oc2c1 [Example 377] | 6.91
COc1cc(OCc2cccc(OCc3ccc(Cl)cc3Cl)c2)c2cc(-c3cn4nc(OC)sc4n3)oc2c1 [Example 378] | 7.38
COc1cc(OCc2cccc(OCc3ccccc3I)c2)c2cc(-c3cn4nc(OC)sc4n3)oc2c1 [Example 379] | 7.84
COc1cc(OCc2cccc(OCc3ccc(F)cc3C(F)(F)F)c2)c2cc(-c3cn4nc(OC)sc4n3)oc2c1 [Example 385] | 3.13
COc1cc(OCc2cccc(OCc3c(OC)cccc3OC)c2)c2cc(-c3cn4nc(OC)sc4n3)oc2c1 [Example 388] | 3.12
COc1cc(OCc2cccc(OCc3ccc(I)cc3)c2)c2cc(-c3cn4nc(OC)sc4n3)oc2c1 [Example 391] | 3.03
COc1cc(OCc2cccc(OCc3cc(F)cc(OCc4ccccc4)c3)c2)c2cc(-c3cn4nc(OC)sc4n3)oc2c1 [Example 395] | 38.3
COc1cc(OCc2cccc(OCc3cc(C(F)(F)F)ccc3C)c2)c2cc(-c3cn4nc(OC)sc4n3)oc2c1 [Example 396] | 4.51
COc1cc(OCc2cc(OCc3ccccc3)cc(C(F)(F)F)c2)c2cc(-c3cn4nc(OC)sc4n3)oc2c1 [Example 400] | 7.47
COc1cc(OCc2cccc(OCc3ccccc3)c2)c2oc(-c3cn4nc(OC)sc4n3)cc2c1 [Example 409, 6-(7-((3-(Benzyloxy)benzyl)oxy)-5-methoxybenzofuran-2-yl)-2-methoxyimidazo[2,1-b][1,3,4]thiadiazole] | 3710
COc1nn2cc(-c3cc4c(OCc5cccc(OCc6ccccc6)c5)cc(O)cc4o3)nc2s1 [Example 410, 4-((3-(Benzyloxy)benzyl)oxy)-2-(2-methoxyimidazo[2,1-b][1,3,4]thiadiazol-6-yl)benzofuran-6-ol] | 7.79
CCc1cc(OCc2cccc(OCc3ccccc3)c2)c2cc(-c3cn4nc(OC)sc4n3)oc2c1 [Example 411, 6-(4-((3-(Benzyloxy)benzyl)oxy)-6-ethylbenzofuran-2-yl)-2-methoxyimidazo[2,1-b][1,3,4]thiadiazole] | 4.53
COc1nn2cc(-c3cc4c(OCc5cccc(OCc6ccccc6)c5)cc(NC(C)=O)cc4o3)nc2s1 [Example 412, N-(4-((3-(Benzyloxy)benzyl)oxy)-2-(2-methoxyimidazo[2,1-b][1,3,4]thiadiazol-6-yl)benzofuran-6-yl)acetamide] | 72.5
COc1nn2cc(-c3cc4c(OCc5cccc(OCc6ccccc6)c5)cc(Cl)cc4o3)nc2s1 [Example 414, 6-(4-((3-(Benzyloxy)benzyl)oxy)-6-chlorobenzofuran-2-yl)-2-methoxyimidazo[2,1-b][1,3,4]thiadiazole] | 5.17
COc1nn2cc(-c3cc4c(OCc5cccc(OCc6ccccc6)c5)cc(C#N)cc4o3)nc2s1 [Example 417] | 5.02
C#Cc1cc(OCc2cccc(OCc3ccccc3)c2)c2cc(-c3cn4nc(OC)sc4n3)oc2c1 [Example 418] | 9.37
CSc1nn2cc(-c3cc4c(OCc5cccc(OCc6ccccc6)c5)cc(OS(=O)(=O)C(F)(F)F)cc4o3)nc2s1 [Example 420] | 51.1
CSc1nn2cc(-c3cc4c(OCc5cccc(OCc6ccccc6)c5)cc(O)cc4o3)nc2s1 [Example 421] | 24.5
CC(F)(F)c1nn2cc(-c3cc4c(OCc5cccc(OCc6ccccc6)c5)cc(OS(=O)(=O)C(F)(F)F)cc4o3)nc2s1 [Example 422] | 698
CCOc1cc(OCc2cccc(OCc3ccccc3)c2)c2cc(-c3cn4nc(SC)sc4n3)oc2c1 [Example 423] | 15.1
CSc1nn2cc(-c3cc4c(OCc5cccc(OCc6ccccc6)c5)cc(OC(F)F)cc4o3)nc2s1 [Example 424] | 21.4
CSc1nn2cc(-c3cc4c(OCc5cccc(OCc6ccccc6)c5)cc(OC=O)cc4o3)nc2s1 [Example 425] | 12.4

Second part, the molecule after the results:

IC50 [nM] | SMILES
2.98 | COc1cc(OCc2cccc(OCc3ccc(F)cc3Cl)c2)c2cc(-c3cn4nc(OC)sc4n3)oc2c1 [Example 369]
2.3 | COc1cc(OCc2cccc(OCc3ccc(F)cc3F)c2)c2cc(-c3cn4nc(OC)sc4n3)oc2c1 [Example 374]
1.11 | COc1cc(OCc2cccc(OCc3cc(OC)c(OC)c(OC)c3)c2)c2cc(-c3cn4nc(OC)sc4n3)oc2c1 [Example 380]
2.77 | COc1cc(OCc2cccc(OCc3ccc(C)c(C)c3)c2)c2cc(-c3cn4nc(OC)sc4n3)oc2c1 [Example 381]
1.67 | COc1cc(OCc2cccc(OCc3cc(C)cc(C)c3)c2)c2cc(-c3cn4nc(OC)sc4n3)oc2c1 [Example 382]
0.73 | COc1cc(OCc2cccc(OCc3ccc(OC)c(OC)c3)c2)c2cc(-c3cn4nc(OC)sc4n3)oc2c1 [Example 389]
1.6 | COc1cc(COc2cccc(COc3cc(OC)cc4oc(-c5cn6nc(OC)sc6n5)cc34)c2)cc(OC)c1 [Example 390]
2.3 | COc1cc(OCc2cccc(OCc3cccc(NC(=O)c4ccccc4)c3)c2)c2cc(-c3cn4nc(OC)sc4n3)oc2c1 [Example 397]
1.28 | COc1cc(Cl)cc(COc2cccc(COc3cc(OC)cc4oc(-c5cn6nc(OC)sc6n5)cc34)c2)c1 [Example 401]
0.86 | COc1cc(OCc2cccc(OCc3ccccc3)c2)c2nc(-c3cn4nc(SC)sc4n3)oc2c1 [Example 403]
1.82 | COc1nn2cc(-c3cc4c(OCc5cccc(OCc6ccccc6)c5)cccc4o3)nc2s1 [Example 413, 6-(4-((3-(Benzyloxy)benzyl)oxy)benzofuran-2-yl)-2-methoxyimidazo[2,1-b][1,3,4]thiadiazole]
1.09 | COc1nn2cc(-c3cc4c(OCc5cccc(OCc6ccccc6)c5)cc(OC(F)F)cc4o3)nc2s1 [Example 416, 6-(4-((3-(Benzyloxy)benzyl)oxy)-6-(difluoromethoxy)benzofuran-2-yl)-2-methoxyimidazo[2,1-b][1,3,4]thiadiazole]
1.91 | COc1nn2cc(-c3cc4c(OCc5cccc(OCc6ccccc6)c5)cc(F)cc4o3)nc2s1 [Example 427]
